Test results published in ChEMBL document CHEMBL1201862, “PubChem BioAssay data set” (2004).
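Protocol summary: plate cells (96-well), add compound at 5 concentrations, incubate 48 h, interpolate endpoints linearly. Here, GI50 denotes the concentration required for 50% inhibition of growth.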 Calls of active or inactive are those of the source. Rule as the data show it: active = GI50 up to about 1.1 µM and inactive = higher.

Columns and labels:
Assay in all cases: NCI anticancer screen, dose series, 48 h
NCI-H23 = system: NCI-H23
SNB-19 = system: SNB-19
UACC-62 = system: UACC-62
NCI-H522 = system: NCI-H522
OVCAR-3 = system: OVCAR-3
DU-145 = system: DU-145
SF-295 = system: SF-295
CAKI-1 = system: CAKI-1
NCI/ADR-RES = system: NCI/ADR-RES
SK-OV-3 = system: SK-OV-3
ACHN = system: ACHN
U-251 = system: U-251
MDA-MB-231 = system: MDA-MB-231
OVCAR-4 = system: OVCAR-4
IGROV-1 = system: IGROV-1
MDA-MB-435 = system: MDA-MB-435
HOP-92 = system: HOP-92
HCC 2998 = system: HCC 2998
A498 = system: A498

| SMILES | GI50 (NCI-H23) | GI50 (SNB-19) | GI50 (UACC-62) | GI50 (NCI-H522) | GI50 (OVCAR-3) | GI50 (DU-145) | GI50 (SF-295) | GI50 (CAKI-1) | GI50 (NCI/ADR-RES) | GI50 (SK-OV-3) | GI50 (ACHN) | GI50 (U-251) | GI50 (MDA-MB-231) | GI50 (OVCAR-4) | GI50 (IGROV-1) | GI50 (MDA-MB-435) | GI50 (HOP-92) | GI50 (HCC 2998) | GI50 (A498) |
| --- | --- | --- | --- | --- | --- | --- | --- | --- | --- | --- | --- | --- | --- | --- | --- | --- | --- | --- | --- |
| COc1ccc(CN=C(N)N)c2ccccc12 | 24.3 µM (inactive) | 18.4 µM (inactive) | 39.4 µM (inactive) | 34.3 µM (inactive) | 42.9 µM (inactive) | 57.7 µM (inactive) | 2.7 µM (inactive) | 20.7 µM (inactive) | > 100 µM (inactive) | 34.8 µM (inactive) | 35.6 µM (inactive) | 16.4 µM (inactive) |  |  |  |  |  |  |  |
| O=C1C(NS(=O)(=O)c2ccccc2)=C(N(Cc2ccccc2)Cc2ccccc2)C(=O)c2ccccc21 | 15.8 µM (inactive) | 38.6 µM (inactive) | 33.4 µM (inactive) |  | 30.4 µM (inactive) | 48.1 µM (inactive) | 31.9 µM (inactive) | > 100 µM (inactive) | 38.5 µM (inactive) | 39.9 µM (inactive) | 44.1 µM (inactive) | 35 µM (inactive) | > 100 µM (inactive) | 19.5 µM (inactive) | 41.8 µM (inactive) | 47.3 µM (inactive) | 36.3 µM (inactive) |  |  |
| [N-]=[N+]=NCN1C(=O)C2C3C=CC(C2C1=O)C1C2C(=O)N(CN=[N+]=[N-])C(=O)C2C31 (stereo not given) | > 100 µM (inactive) | > 100 µM (inactive) | > 100 µM (inactive) | > 100 µM (inactive) | > 100 µM (inactive) | > 100 µM (inactive) | 60 µM (inactive) | > 100 µM (inactive) | > 100 µM (inactive) |  | > 100 µM (inactive) |  |  |  | > 100 µM (inactive) | > 100 µM (inactive) | 12.5 µM (inactive) | 11.7 µM (inactive) |  |
| O=S(=O)(c1cc(Cl)ccc1Cl)N1CCN(c2ccc(Cl)c(Cl)c2)CC1 | 33.4 µM (inactive) | 14.1 µM (inactive) |  | 18.5 µM (inactive) | 14.6 µM (inactive) | > 100 µM (inactive) | 24.9 µM (inactive) | 22 µM (inactive) |  |  | 37 µM (inactive) | 21.7 µM (inactive) | > 100 µM (inactive) | 16.1 µM (inactive) | 36.8 µM (inactive) |  | 18 µM (inactive) | 62.1 µM (inactive) | 25.5 µM (inactive) |
| CCN(CC)CCC1CCCCN1CC(=O)N1c2ccccc2NC(=O)c2ccccc21 (stereo not given) | > 100 µM (inactive) | > 100 µM (inactive) | > 100 µM (inactive) | > 100 µM (inactive) | > 100 µM (inactive) | > 100 µM (inactive) | > 100 µM (inactive) | > 100 µM (inactive) |  | > 100 µM (inactive) | > 100 µM (inactive) | > 100 µM (inactive) | > 100 µM (inactive) | > 100 µM (inactive) | > 100 µM (inactive) | > 100 µM (inactive) | > 100 µM (inactive) | > 100 µM (inactive) | > 100 µM (inactive) |
| CC(C)C1(Cl)CCC2C3(C)CCCC(C)(C(=O)O)C3CC(Cl)C2(Cl)C1Cl (stereo not given) | 54.2 µM (inactive) | 34.8 µM (inactive) | 24.7 µM (inactive) | 20 µM (inactive) |  |  |  | 43 µM (inactive) | 32.5 µM (inactive) |  | 43.2 µM (inactive) | 20.7 µM (inactive) | 33.3 µM (inactive) | 24.8 µM (inactive) | 54.7 µM (inactive) | 25.9 µM (inactive) | 37.4 µM (inactive) | 27.4 µM (inactive) | 41.7 µM (inactive) |
| Cc1[nH]c2ccccc2c1-c1cc(-c2cc(-c3c(C)[nH]c4ccccc34)nc(N)n2)nc(N)n1 | > 100 µM (inactive) | > 100 µM (inactive) | > 100 µM (inactive) | 51.8 µM (inactive) | > 100 µM (inactive) |  | > 100 µM (inactive) | > 100 µM (inactive) | > 100 µM (inactive) | > 100 µM (inactive) | > 100 µM (inactive) | > 100 µM (inactive) | > 100 µM (inactive) | > 100 µM (inactive) | > 100 µM (inactive) | > 100 µM (inactive) | > 100 µM (inactive) |  | > 100 µM (inactive) |
| COc1cccc(-c2nc(-c3cnccn3)n(C/C=C/c3ccccc3)n2)c1 | > 10 µM (inactive) | > 10 µM (inactive) | > 10 µM (inactive) | > 10 µM (inactive) | > 10 µM (inactive) |  | > 10 µM (inactive) |  | > 10 µM (inactive) |  | > 10 µM (inactive) | > 10 µM (inactive) |  | > 10 µM (inactive) | > 10 µM (inactive) | > 10 µM (inactive) | 1.86 µM (inactive) | > 10 µM (inactive) |  |
| [N-]=[N+]=NC1C2CC3C4CC5CC3[C@H](C2)C(C5)C41 (stereo not given in full) | > 100 µM (inactive) | > 100 µM (inactive) | > 100 µM (inactive) | > 100 µM (inactive) | > 100 µM (inactive) |  | > 100 µM (inactive) | > 100 µM (inactive) |  | > 100 µM (inactive) | > 100 µM (inactive) | > 100 µM (inactive) |  | > 100 µM (inactive) | > 100 µM (inactive) |  | > 100 µM (inactive) | > 100 µM (inactive) | > 100 µM (inactive) |
| Cc1nnc2n(c1=O)CCCN2C | > 100 µM (inactive) | > 100 µM (inactive) | > 100 µM (inactive) |  | > 100 µM (inactive) | > 100 µM (inactive) | > 100 µM (inactive) |  |  | > 100 µM (inactive) | > 100 µM (inactive) | > 100 µM (inactive) | > 100 µM (inactive) | > 100 µM (inactive) | > 100 µM (inactive) | > 100 µM (inactive) | > 100 µM (inactive) | > 100 µM (inactive) |  |
| Nc1nc(N)c2nc(CN(C=O)c3ccc(C(=O)O)cc3)cnc2n1 | 20 µM (inactive) | > 42.2 µM (inactive) | 7.11 µM (inactive) | 0.438 µM (active) | > 100 µM (inactive) | 7.38 µM (inactive) | 17.1 µM (inactive) | > 28.2 µM (inactive) |  | > 30.1 µM (inactive) | 3.94 µM (inactive) | > 93.5 µM (inactive) | > 100 µM (inactive) | > 100 µM (inactive) | 44.5 µM (inactive) | 17.9 µM (inactive) | > 100 µM (inactive) | > 100 µM (inactive) |  |
| COC(=O)C1C(C(=O)OC)C2(OC(c3ccc(Cl)cc3)=CC2=O)C12OC(c1ccc(Cl)cc1)=CC2=O (stereo not given) | 20.8 µM (inactive) | 43.2 µM (inactive) | 14.6 µM (inactive) | 18.4 µM (inactive) | 19.2 µM (inactive) | 29.9 µM (inactive) | 22.6 µM (inactive) | 22 µM (inactive) |  | 71.1 µM (inactive) | 19.9 µM (inactive) | 32.1 µM (inactive) | 26.4 µM (inactive) | 19.9 µM (inactive) | 17 µM (inactive) | 22.5 µM (inactive) | 18.6 µM (inactive) | 18.3 µM (inactive) | 29.9 µM (inactive) |
| O=[N+]([O-])c1ccc2nc3n(c2c1)C(c1c(F)cccc1F)SC3 (stereo not given) | > 100 µM (inactive) | > 100 µM (inactive) |  |  | > 100 µM (inactive) | > 100 µM (inactive) | 89.5 µM (inactive) |  | > 100 µM (inactive) | > 100 µM (inactive) | > 100 µM (inactive) | > 100 µM (inactive) | > 100 µM (inactive) |  | > 100 µM (inactive) |  |  |  | > 100 µM (inactive) |
| Cc1c2cccc-2c2cc(O)c3ccccc3c2n1-c1ccc(N(C)C)cc1 | 4.28 µM (inactive) | 16.4 µM (inactive) | 16 µM (inactive) | 14.8 µM (inactive) | 6.46 µM (inactive) |  | 10.1 µM (inactive) | 16 µM (inactive) | 14.6 µM (inactive) | 15.8 µM (inactive) | 12.4 µM (inactive) | 13.2 µM (inactive) | 3.01 µM (inactive) | 3.37 µM (inactive) | 2.59 µM (inactive) | 13.1 µM (inactive) | 2.51 µM (inactive) | 13 µM (inactive) | 17.1 µM (inactive) |
| O=C(NCc1cccc2ccccc12)N/N=C\c1ccc(Cl)cc1 | > 100 µM (inactive) | > 100 µM (inactive) | > 100 µM (inactive) | 36.6 µM (inactive) | > 100 µM (inactive) | > 100 µM (inactive) | 53.5 µM (inactive) | 43.2 µM (inactive) | > 100 µM (inactive) |  | > 100 µM (inactive) | > 100 µM (inactive) |  | > 100 µM (inactive) | > 100 µM (inactive) | 28.1 µM (inactive) | 74.8 µM (inactive) | 57.7 µM (inactive) |  |
| CCCc1cc2c(cc1O)CC[C@@H]1[C@@H]2CC[C@]2(C)[C@@H](O)CC[C@@H]12 | 14.1 µM (inactive) | 12.9 µM (inactive) |  | 8.32 µM (inactive) | 11.8 µM (inactive) |  | 5.82 µM (inactive) | 11.3 µM (inactive) | 6.32 µM (inactive) | 14.6 µM (inactive) | 12.9 µM (inactive) | 6.62 µM (inactive) | 17.3 µM (inactive) | 17.7 µM (inactive) | 15.2 µM (inactive) |  | 19.1 µM (inactive) | 16.5 µM (inactive) | 17.9 µM (inactive) |
| CC(=O)CC(=O)Nn1c(-c2cccs2)nc2ccc(I)cc2c1=O | > 49 µM (inactive) | > 68.2 µM (inactive) | > 50.6 µM (inactive) | > 49.5 µM (inactive) | > 40.7 µM (inactive) | > 38.1 µM (inactive) | > 54.7 µM (inactive) | > 47.3 µM (inactive) | > 46.5 µM (inactive) | > 66.7 µM (inactive) | > 57 µM (inactive) | > 56 µM (inactive) |  | > 100 µM (inactive) | > 46.7 µM (inactive) | > 60.7 µM (inactive) | > 50.1 µM (inactive) | > 39.8 µM (inactive) |  |
